According to paper PMC3546862, “Assessing the utility of an anti-malarial pharmacokinetic-pharmacodynamic model for aiding drug clinical development” (Malaria Journal, 2012):
In brackets after ≈: the same amount, converted by molar mass. Read-outs that look alike come from different tables or passages of the source. Marks after values point to notes of the source that are not given here.

How the values were obtained:
[1] = test system: fresh P. falciparum parasite isolates; assay: In vitro drug susceptibility, schizont maturation test (WHO guidelines) on fresh patient isolates; assay type: cell-based; settings: for IC50: Plasmodium falciparum; for γ, mean on loge scale of log-normal distribution lnN(μ ln, σ ln): first parameter of lnN; for γ (Slope of concentration-effect curve): in vitro
Procedure: (§1) The fresh P. falciparum parasite isolates were obtained from blood samples of 487 patients attending outpatient clinics in Papua, Indonesia between 2004 and 2010 [26]. The in vitro drug susceptibility was determined using the World Health Organization guidelines for schizont maturation tests. The in vitro data for artemether were measured at the Swiss Tropical and Public Health Institute (Switzerland; Basel) against asynchronous intraerythrocytic forms of the P. falciparum strain NF54 (obtained from MR4) using the [3H]-hypoxanthine incorporation assay.

0.5% Albumax in RPMI = 0.5% Albumax in RPMI (Bos taurus, UniProt P02769); assay: Binding to in vitro testing media by ultracentrifugation; assay type: in vitro ADME; settings: ultracentrifugation 4.2 hours at 37°C
Chain of 0.5% Albumax in RPMI (P02769 25-607): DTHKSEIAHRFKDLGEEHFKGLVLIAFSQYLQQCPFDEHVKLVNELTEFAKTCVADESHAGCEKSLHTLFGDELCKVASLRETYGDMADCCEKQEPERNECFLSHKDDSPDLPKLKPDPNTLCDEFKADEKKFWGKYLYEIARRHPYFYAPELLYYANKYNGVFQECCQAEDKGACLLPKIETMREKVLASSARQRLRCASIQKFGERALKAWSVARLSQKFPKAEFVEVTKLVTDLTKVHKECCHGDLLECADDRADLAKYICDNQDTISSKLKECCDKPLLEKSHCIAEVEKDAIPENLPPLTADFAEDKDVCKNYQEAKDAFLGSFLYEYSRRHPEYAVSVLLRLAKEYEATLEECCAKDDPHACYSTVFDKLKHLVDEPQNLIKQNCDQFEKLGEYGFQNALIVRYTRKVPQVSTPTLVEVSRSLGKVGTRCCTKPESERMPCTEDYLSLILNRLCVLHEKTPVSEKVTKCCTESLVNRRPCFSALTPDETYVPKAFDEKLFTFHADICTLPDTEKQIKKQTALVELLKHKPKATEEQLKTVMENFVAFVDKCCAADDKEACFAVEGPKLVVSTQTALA
Procedure: (§2) Estimates of drug binding to the in vitro testing media (i.e. 0.5% Albumax in RPMI) and human plasma were determined using ultracentrifugation. Briefly, blank Albumax media and plasma were each spiked with compound and divided into six aliquots; three aliquots were subjected to ultracentrifugation (Beckman Optima XL-100K Ultracentrifuge, Rotor type 42.2 Ti; 223,000 x g) for 4.2 hours at 37°C to pellet the proteins whereas the remaining three aliquots served as controls and were incubated at 37°C for the same time period but without centrifugation. Controls were also stored at −20°C to confirm sample stability over the centrifugation period. Aliquots of the supernatants from the ultracentrifuged samples were first diluted 1:1 in acetonitrile, assayed by LC-MS and the responses compared to a calibration curve prepared in 50% aqueous acetonitrile to determine the unbound (i.e. free) concentration. Control concentrations in each matrix were determined using LC-MS by first precipitating the proteins with acetonitrile (3:1 acetonitrile: matrix) and then comparing the responses to a calibration curve from a blank matrix prepared using the same protein precipitation procedure. The free fraction in each matrix was then determined from the ratio of the average unbound (e.g. free) concentration to the average total concentration in each matrix.

[2] = cited from earlier work
human plasma protein = assay: Human plasma protein binding by ultracentrifugation; assay type: in vitro ADME; settings: ultracentrifugation 4.2 hours at 37°C
Procedure: as §2

P. falciparum [3] = test system: P. falciparum; design: method as in PMID 2648881; settings: assumed; cited from earlier work
P. falciparum [4] = assay: Parasite reduction ratio from published clinical data and kmax calculated from it; assay type: in vivo; settings: kmax = 1/KZ x ln PRR + 1/48 x ln PMF, PMF = 10
Text: (§3) The maximal killing rate (kmax) of the drug was assumed to follow a triangular distribution. The middle values were taken from published clinical data. Piperaquine was the only drug with no clinical studies of it administered as a monotherapy and the mode was set to a value equal to that derived from in vitro experiments. The minimum and maximum values of the triangular distribution for each anti-malarial correspond to a 50-fold decrease and 50-fold increase in the number of parasites killed every 48 hours.

P. falciparum [5] = assay: Parasite reduction ratio from in vitro killing rate experiments and kmax calculated from it; assay type: cell-based; settings: kmax = 1/KZ x ln PRR + 1/48 x ln PMF, PMF = 10; PRR from in vitro experiments
Text: as §3

[6] = Whole blood to plasma partitioning ratio (B/P); assay type: in vitro ADME; settings: human, whole blood and plasma; 37°C, 2 min incubation
Procedure: The whole blood to plasma partitioning ratio (B/P) was determined by spiking aliquots of whole blood or plasma maintained at 37°C with compound, incubating for 2 min, and then centrifuging the whole blood sample to obtain the plasma fraction. Both the plasma fraction of whole blood and the plasma control were assayed for compound by LC-MS as described above. The blood to plasma ratio was calculated from the ratio of the concentration in the plasma control (used as a surrogate for the total whole blood concentration since whole blood assays were not available for each compound) to that in the plasma fraction of whole blood. The two-minute time point was used to avoid confounding issues due to potential blood instability; rapid equilibration between plasma and erythrocytes was assumed.

ring stage parasites = test system: ring stage parasites; design: method as in PMID 21173254; settings: patients with delayed PCTs; cited from earlier work
[7] = test system: P. falciparum strain NF54; assay: [3H]-hypoxanthine incorporation assay, asynchronous intraerythrocytic forms; assay type: cell-based; settings: for IC50: Plasmodium falciparum
Procedure: as §1

P. falciparum [8] = settings: every 48 hours; published clinical data; cited from earlier work
[9] = geometric mean, adjusted to whole blood, lower limit a of EC50 distribution, read-out: IC50 (adjusted) concentration
[10] = geometric mean, not corrected for binding, isolates of 487 patients, Papua, Indonesia, read-out: IC50 measured concentration
[11] = not corrected for binding, from nM and molecular weight, read-out: IC50 concentration

| Structure (SMILES) | IC50 [1, 9] [ng/mL] | IC50 [1, 10] [nM] | IC50 [1, 11] [ng/mL] | γ, mean on loge scale of log-normal distribution lnN(μ ln, σ ln) [1] | γ (Slope of concentration-effect curve) [1] | Binding to media of in vitro experiment (0.5% Albumax) (0.5% Albumax in RPMI) [% bound] | V/F (volume of distribution) [2] | Human plasma protein binding (human plasma protein) [% bound] | KZ (length of the killing zone) (P. falciparum [3]) [h] | kmax, mode c of triangular distribution TRI(a, b, c) (P. falciparum [4]) | blood plasma ratio at 2 min [6] | CL/F (clearance) [2] [L/h] | ka (absorption rate constant) [2] [h⁻¹] | also measured |
| --- | --- | --- | --- | --- | --- | --- | --- | --- | --- | --- | --- | --- | --- | --- |
| OC(c1cc(C(F)(F)F)nc2c(C(F)(F)F)cccc12)C1CCCCN1 (stereo not drawn) [MQ, mefloquine] | 21 | 9.34 | 3.53 | lnN (0.97, 0.54) | 2.63 | 85 | 10.2^f L/kg | 95.6 | 22 | TRI(0.11, 0.46, 0.28)^c /h |  |  |  | IC50 (adjusted) concentration ([1]; geometric mean, adjusted to whole blood, lower limit a of EC50 distribution): 20.48 ng/mL (≈ 0.0541 µM) |
| Clc1ccc2c(N3CCN(CCCN4CCN(c5ccnc6cc(Cl)ccc56)CC4)CC3)ccnc2c1 [PQ, piperaquine] | 11.6 | 17.7 | 9.46 |  | 3.48 | 98.1 |  | 98.6 | 24 |  | 0.9 |  |  | kmax, mode c of triangular distribution TRI(a, b, c) (P. falciparum [5]): TRI(0.33, 0.65, 0.49)^c /h; CL/F (clearance) ([2]; 48kg individual): 66 L/h; Q/F (inter-compartmental clearance) ([2]; 48kg individual): 131 L/h; Vc/F (volume of central compartment) ([2]; 48kg individual): 8660 L; Vp/F (volume of peripheral compartment) ([2]; 48kg individual): 24000 L; ka (absorption rate constant) ([2]; 48kg individual): 0.717 h⁻¹ |
| C[C@H]1[C@H](OC(=O)CCC(=O)O)O[C@@H]2O[C@@]3(C)CC[C@H]4[C@H](C)CC[C@@H]1[C@@]24OO3 [artesunate] |  |  |  |  |  |  |  |  |  |  |  |  |  | Maximal killing rate for the ring stages, mean (ring stage parasites): 62 % /cycle |
| CO[C@H]1O[C@@H]2O[C@@]3(C)CC[C@H]4[C@H](C)CC[C@@H]([C@H]1C)[C@@]24OO3 [ART, artemether] |  |  |  |  |  | 82.8 | 217 L | 91.7 | 38 | TRI(0.12, 0.33, 0.22)^c /h | 0.8 | 180 | 0.37 | IC50 ([7]; adjusted to whole blood, lower limit a of EC50 distribution, read-out: IC50 (adjusted) concentration): 4.38 ng/mL (≈ 0.0147 µM); IC50 ([7]; not corrected for binding, read-out: IC50 concentration): 2.64 ng/mL (≈ 0.00885 µM); γ, mean on loge scale of log-normal distribution lnN(μ ln, σ ln) ([7]; first parameter of lnN): lnN(1.53, 0.31); γ (Slope of concentration-effect curve) ([7]; in vitro): 4.61 |
| CCCCN(CCCC)CC(O)c1cc(Cl)cc2c1-c1ccc(Cl)cc1/C2=C/c1ccc(Cl)cc1 (stereo not drawn) [LF, lumefantrine] | 1.75 | 13.4 | 7.1 | lnN (0.81, 0.58) | 2.24 | 99.6 |  | 98.7 | 22 | TRI(0.18, 0.54, 0.36)^c /h | 0.8 | 7.04 | 0.17 | PRR (parasite reduction ratio) (P. falciparum [8]): 10^3; Q/F (inter-compartmental clearance) [2]: 4.08 L/h; Vc/F (volume of central compartment) [2]: 103 L; Vp/F (volume of peripheral compartment) [2]: 272 L |
